Experimental data taken from the NIST ThermoML archive (doi:10.1016/j.tca.2019.05.011).
Numbers after ± are expanded uncertainties.

Columns and labels:
[1] = Liquid, Closed cell (Static) method
[2] = molar heat capacity at constant pressure; settings: 101.33 kPa, Liquid, Vacuum adiabatic calorimetry

CC(C)O [propan-2-ol]
Settings | molar heat capacity at constant pressure [J/K/mol] | vapor or sublimation pressure [kPa]
[1], 297.8 K | – | 5.781 ± 0.12
[1], 303.1 K | – | 7.995 ± 0.17
[1], 315.8 K | – | 16.22 ± 0.34
[1], 332.1 K | – | 36.06 ± 0.74
[1], 344.7 K | – | 63.92 ± 1.3
[2], 190 K | 111.12 ± 1.8 | –
[2], 200 K | 112.89 ± 1.8 | –
[2], 210 K | 115.01 ± 1.8 | –
[2], 220 K | 117.52 ± 1.8 | –
[2], 230 K | 120.46 ± 1.8 | –
[2], 240 K | 123.87 ± 1.8 | –
[2], 250 K | 127.81 ± 1.8 | –
[2], 260 K | 132.31 ± 1.8 | –
[2], 270 K | 137.41 ± 1.8 | –
[2], 280 K | 143.19 ± 1.8 | –
[2], 290 K | 149.68 ± 1.8 | –
[2], 300 K | 156.94 ± 1.8 | –
[2], 310 K | 165.02 ± 1.8 | –
[2], 320 K | 173.99 ± 1.8 | –
[2], 330 K | 183.9 ± 1.8 | –
